Measured values: ChEMBL document CHEMBL1135449, “A novel series of hybrid compounds derived by combining 2-aminotetralin and piperazine fragments: binding activity at D2 and D3 receptors” (Bioorg Med Chem Lett, 2002)

Tests used:
D(3) dopamine receptor = D(3) dopamine receptor (Homo sapiens, UniProt P35462); assay: Tested for the binding constant against cloned human Dopamine receptor D3 in HEK cells by displacing [3H]spiperone; type: cell-based, HEK293
D(2) dopamine receptor = D(2) dopamine receptor (Homo sapiens, UniProt P14416); assay: Tested for the binding constant against cloned human Dopamine receptor D2L in HEK cells by displacing [3H]spiperone; type: cell-based, HEK293
Chain of D(2) dopamine receptor (P14416 whole entry): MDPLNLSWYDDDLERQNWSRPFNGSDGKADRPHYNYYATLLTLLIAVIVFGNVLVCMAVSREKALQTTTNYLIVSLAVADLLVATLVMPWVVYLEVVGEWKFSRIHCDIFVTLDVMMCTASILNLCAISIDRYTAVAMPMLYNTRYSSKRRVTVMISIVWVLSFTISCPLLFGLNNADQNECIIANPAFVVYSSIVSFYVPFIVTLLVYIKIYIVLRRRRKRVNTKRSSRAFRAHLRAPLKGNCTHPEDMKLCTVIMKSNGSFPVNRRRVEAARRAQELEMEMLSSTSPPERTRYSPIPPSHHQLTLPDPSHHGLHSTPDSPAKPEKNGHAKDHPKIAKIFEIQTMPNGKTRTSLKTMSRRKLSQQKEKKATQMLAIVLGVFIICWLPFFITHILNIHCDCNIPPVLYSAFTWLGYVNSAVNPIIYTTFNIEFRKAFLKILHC

Chain of D(3) dopamine receptor (P35462 whole entry): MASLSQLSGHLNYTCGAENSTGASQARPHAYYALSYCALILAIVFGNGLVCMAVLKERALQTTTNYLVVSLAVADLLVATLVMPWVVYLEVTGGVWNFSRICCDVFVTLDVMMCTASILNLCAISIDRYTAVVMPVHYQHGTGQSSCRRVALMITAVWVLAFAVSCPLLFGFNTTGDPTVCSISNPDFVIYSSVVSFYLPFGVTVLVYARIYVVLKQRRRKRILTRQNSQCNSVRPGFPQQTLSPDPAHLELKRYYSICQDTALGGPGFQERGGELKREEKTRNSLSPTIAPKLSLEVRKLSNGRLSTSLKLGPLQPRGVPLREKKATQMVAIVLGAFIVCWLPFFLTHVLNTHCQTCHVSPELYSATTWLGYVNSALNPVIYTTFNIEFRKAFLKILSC

SMILES	Ki (D(3) dopamine receptor)	Ki (D(2) dopamine receptor)
CCCN(CCN1CCN(c2cccc(Cl)c2Cl)CC1)C1CCc2ccc(O)cc2C1 (stereo not drawn)	1.13 nM	27.4 nM
O=C(NCCCCN(CCCN1CCN(c2ccccc2)CC1)C1CCc2ccc(O)cc2C1)c1ccccc1 (stereo not drawn)	756 nM	782 nM
N#CCCCN(CCCN1CCN(c2ccccc2)CC1)C1CCc2ccc(O)cc2C1 (stereo not drawn)	50.2 nM	622 nM
O=C(NCCN(CCCN1CCN(c2ccccc2)CC1)C1CCc2ccc(O)cc2C1)c1ccccc1 (stereo not drawn)	55.7 nM	354 nM
